This note sets out measurements from article PMC8176454, “Synthesis and Assessment of Novel Probes for Imaging Tau Pathology in Transgenic Mouse and Rat Models” (ACS Chemical Neuroscience, 2021).

In general, Kd refers to the equilibrium constant for the complex coming apart. What is called IC50 is the point on the concentration scale where inhibition reaches its midpoint.

Read-outs that look alike come from different tables or passages of the source.

For data set [1], the target named is T1, heparin-induced synthetic recombinant tau fibrils (tau-441 human) (Homo sapiens, UniProt P10636).
T1 construct: purchased Eurogentec
In words: Fluorescence quenching assay of compound binding to heparin-induced synthetic recombinant tau fibrils. To be noted: read-out: Kd of compound binding to heparin-induced synthetic tau fibrils determined by fluorimetry. The method, then: All compounds were assessed for their ability to bind to synthetic recombinant tau fibrils using a fluorescence quenching assay[20] […] Binding affinities for some compounds (141, 164, 166, 169, 171, and 207) could not be assessed with this assay because of negligible changes in fluorescence intensity. […] This compound was then selected for further characterization and development.
All reagents and solvents were used as supplied or purified using standard procedures as necessary. Analytical separation was conducted on an Ultimate 3000 HPLC system (Thermo Scientific). [^11C]CO2 was produced via the ^14N(p,α) nuclear reaction using GE PETtrace cyclotron applying 16.5 MeV protons onto 0.5% oxygen in nitrogen gas. [^11C]Methyl iodide was synthesized on a GE Medical Systems MeI MicroLab. A F-4500 FL spectrophotometer (Chemical Engineering department, University of Cambridge) was used to do fluorescence scan of all of the compounds mixed with tau fibrils. Excitation wavelength was 365 nm, and emission was scanned from 400 to 600 nm. With parameters, setting excitation slit was 5.0 nm, emission slit was 20.0 nm, PMT voltage was 950 V, and response was 0.5 s.
Monomeric tau (tau-441 human) lyophilized powder was obtained from Eurogentec. Tau monomers (100 μM) were prepared in 20 mM BES buffer (pH 7.4 with 25 mM NaCl and 2 mM dithiothreitol and incubated at 56 °C for 10 min. After being cooled to room temperature in a water bath, heparin (25 μM) and a protease inhibitor mix were added and incubated at 37 °C for 10 days. […]
Binding affinity of all compounds with tau fibrils […]
All other compounds binding affinit ies towards tau fibrils
were then tested by fluorescent binding assay. […]

In data set [2] the test system is tau aggregates in DRG neurons from P301S tau mice. Description: Fluorescence binding to cultured DRG neurons from P301S tau transgenic mice. In kind it is cell-based, mouse. To be noted: for IC50: Mus musculus, DRG neuron. The method, then:
P301S tau mice with aggregated tau in the brain also express aggregated tau in DRG neurons.[24]−[26] […] To estimate the apparent affinity of LM229 to tau aggregates directly in living neurons, we imaged live neurons after 20 min incubation with various concentrations of LM229 (Figure 4A). […] LM229 binding was specific to neurons with aggregated tau, as detected with the AT100 antibody[18],[22],[23],[26] (Figure 4D). […] Although PBB3 also bound to DRG neurons with tau aggregates at 30–100 μM, it was not possible to derive an IC50 value because of its low affinity in this assay (Supporting Information, Figure S2). […] The shift from nanomolar to micromolar affinity between binding to heparin tau fibrils and tau aggregates in P301S tau neurons may reflect the different environment and assay conditions or the different conformations that tau aggregates assume in neurons compared to heparin–tau complexes.[27]
Neurons were prepared from phenotypic end stage 5–7 month old P301S tau mice and cultured as described previously.[24] For live staining, neurons cultured for 2 days were washed in PBS and incubated with various concentrations of LM229 for 20 min at room temperature. After three washes in PBS, neurons were imaged on a Leica DMI 4000B microscope using a DFC3000 G camera and application suite 4.0.0.11706. The dead cell stain Propidium iodide (1 μg/mL) was added to ensure that only live cells were imaged. Phase contrast images were taken to show viable neurons. For fixed cell staining, neurons were fixed for 20 min at room temperature in 4% paraformaldehyde, washed in PBS, and permeabilized in PBS containing 0.3% Triton X-100. LM299 was added as described for live cells, and cells were probed with AT100 (1:1000, MN1060) followed by anti-mouse AlexaFluor568 secondary antibody. Cultures were co-stained with the nuclear dye DAPI (blue) to reveal total cells. […]
Binding to cultured neurons from P301S tau transgenic mice
DRG were incubated with the indicated concentrations of LM229 or PBB3 for 20 minutes at room temperature, washed 3 times in PBS, and imaged on a Leica DMI 4000B microscope using a Leica DFC3000 G camera and the Leica application suite 4.0.0.11706. Fluorescence intensity was measured in 10-16 neurons each from 3 independent cultures using Image J (imagej.nih.gov/ij/). Results shown are mean ± SD. Non linear least squares curve fitting was applied using http://faculty.gvsu.edu/carlsont/232lab/nonlin2.html. No Km value was […]
Figure S2: Binding of LM229 and PBB3 to DRG neurons with tau aggregates […]
(1 picture or pasted object on this page, not shown here)

The target of data set [3] is T2, 3R tau151-391 aggregates in cortical sections from SHR24 rats (Homo sapiens, UniProt P10636).
T2 construct: tissue AXON Neuroscience; host or cells: brain (cortex) sections of SHR24 transgenic rats
Description: Binding to SHR24 transgenic rat brain sections. To be noted: 50 μM, colocalization with AT8. An excerpt: (§1) Since future PET studies for development of these compounds would require kinetic modeling for their assessment in vivo, we tested their performance in tau transgenic rats. Rat brains and blood volumes are about 6- and 10-fold larger, respectively, than those of mice and thus enable higher resolution imaging and ample volume for repeated blood sampling. We used two transgenic rat lines expressing human-truncated tau comprising the proline-rich region and either three microtubule binding domains (3R tau151-391, SH24)[28] or four microtubule binding domains (4R tau151-391, SHR72).[29] […] However, compared to the SHR24 rat brain sections, there were less inclusions detected, which seems to indicate the compounds have preferential binding toward the three repeat forms of tau in these rat models.
(§2) Fresh frozen rat brain coronal sections (10 μm) were stored on slides at −80 °C until use. Sections were fixed in ice cold acetone for 10 min and air-dried and then rehydrated twice for 5 min with buffer (10 mM PBS with 0.1% Triton X-100) before application of 5% bovine serum albumin for 1 h and two more 5 min buffer washes. Primary monoclonal antibody AT8 (Thermo MN1020, 1:1000) was added overnight at 4 °C, followed by 1 h incubation with a mixture of secondary AlexaFluor555 goat anti-mouse antibody (1:1000) and 50 μM PBB3 or LM229 in 50:50 ethanol/buffer. Following two 5 min washes in buffer, the slides were air-dried and cover-slipped using Fluorsave before analysis. The green autofluorescence of PBB3 and LM229 was visualized using a 488 nm filter and fluorescence of AT8 using a 568 nm filter on a Leica DM6000 microscope.

Data set [4] relates to 3R tau151-391 aggregates in cortical sections from SHR24 rats. Description: Binding to SHR24 transgenic rat brain sections. Particulars: SHR24 (3R) vs SHR72 (4R) brain tissue.
Description: as §1, §2

T2 sequence (P10636 151-360 isoform P10636-5): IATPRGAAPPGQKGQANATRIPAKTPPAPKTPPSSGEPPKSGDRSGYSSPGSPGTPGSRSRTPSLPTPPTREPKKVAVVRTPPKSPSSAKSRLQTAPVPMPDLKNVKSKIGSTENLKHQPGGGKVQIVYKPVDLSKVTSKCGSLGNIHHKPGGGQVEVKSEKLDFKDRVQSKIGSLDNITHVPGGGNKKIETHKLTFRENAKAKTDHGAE
T1 sequence (P10636 1-441 isoform P10636-8): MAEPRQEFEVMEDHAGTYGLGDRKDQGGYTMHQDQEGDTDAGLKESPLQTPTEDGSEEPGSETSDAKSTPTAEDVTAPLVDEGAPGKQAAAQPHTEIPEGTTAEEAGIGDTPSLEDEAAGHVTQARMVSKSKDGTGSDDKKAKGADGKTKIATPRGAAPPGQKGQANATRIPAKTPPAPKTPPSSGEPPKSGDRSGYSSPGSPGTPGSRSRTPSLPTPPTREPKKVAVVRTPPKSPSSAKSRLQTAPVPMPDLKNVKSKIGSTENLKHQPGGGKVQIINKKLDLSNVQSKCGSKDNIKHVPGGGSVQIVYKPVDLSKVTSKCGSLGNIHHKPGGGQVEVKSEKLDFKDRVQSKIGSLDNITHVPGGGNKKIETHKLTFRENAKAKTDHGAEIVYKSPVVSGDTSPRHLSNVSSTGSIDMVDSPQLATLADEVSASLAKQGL

As to `CNc1ccc(/C=C/C=C/c2nc3cc(F)c(O)cc3s2)cn1` [LM229], the Kd in data set [1] was determined as 3.6 nM. For the same molecule, the “Retention of fluorescence in neurons after exposure and washes” value in data set [2] (3 days after exposure) is “still retained albeit to a lower intensity”. The IC50 was 2700 ± 700 nM in data set [2] (20 min, live DRG neurons, 20 min incubation, read-out: IC50, apparent affinity to tau aggregates in live neurons); 1670 ± 280 nM in data set [2] (fixed DRG neurons, figure legend value, read-out: IC50, fixed neurons (Figure 4B)); 1700 ± 300 nM in data set [2] (fixed, permeabilized DRG neurons, read-out: IC50, fixed and permeabilized neurons); 2970 ± 730 nM in data set [2] (live DRG neurons, figure legend value, read-out: IC50, live neurons (Figure 4B)). For the same molecule, the Cell permeability entry in data set [2] (live vs fixed/permeabilized DRG neurons) is listed as “highly cell permeable”. In addition, the “Binding to pathological aggregated tau in SHR24 rat brain sections” value in data set [3] was “bound with similar properties to pathological aggregated tau”. The “Preference between 3R and 4R tau inclusions in rat models” value in data set [4] was “preferential binding toward the 3R tau inclusions”.
